What all share (type): biochemical
For one test, the target named is PIM-1 (Homo sapiens, UniProt P11309). The test is described as follows: Enzyme PIM-1 Assay ([33P]ATP incorporation into PIM2tide, filter plate). Conditions: averaged IC50; 35 μM ATP, 7.5 μM PIM2tide, 0.25 nM PIM-1, 60 min at 22° C. The procedure, abridged:
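Ten-point, 3-fold dilution series (10 μM top, 2% DMSO final) tested for inhibition of 33P transfer from 35 μM ATP to 7.5 μM PIM2tide by 0.25 nM PIM-1. Reaction 60 min, 22 °C, pH 7.4 MOPS/MgCl2 buffer; phosphocellulose capture, scintillation counting, IC50 where fitted POC equals 50.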

The target of a further test is recombinant rat PIM-3 (Rattus norvegicus, UniProt O70444). Description: PIM-3 Assay (as Example A). The note with it: averaged IC50; 30 μM ATP, 3.75 μM PIM2tide, 0.5 nM PIM-3. The procedure, abridged: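 33P incorporation from 30 μM [γ-33P]ATP into 3.75 μM PIM2tide by 0.5 nM rat PIM-3, 60 min at 22 °C in pH 7.4 MOPS buffer, read by P81 filter capture and scintillation counting. Compounds tested in 3-fold dilutions up to 10 μM final, 2% DMSO; percent-of-control data fitted by 4-parameter logistic for IC50.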

For test [1], the target named is T1, GST-tagged recombinant full-length human Pim-2 (Homo sapiens, UniProt Q9P1W9).
T1 construct: GST-tagged recombinant full-length human Pim-2; GST
T1 sequence (Q9P1W9 whole entry): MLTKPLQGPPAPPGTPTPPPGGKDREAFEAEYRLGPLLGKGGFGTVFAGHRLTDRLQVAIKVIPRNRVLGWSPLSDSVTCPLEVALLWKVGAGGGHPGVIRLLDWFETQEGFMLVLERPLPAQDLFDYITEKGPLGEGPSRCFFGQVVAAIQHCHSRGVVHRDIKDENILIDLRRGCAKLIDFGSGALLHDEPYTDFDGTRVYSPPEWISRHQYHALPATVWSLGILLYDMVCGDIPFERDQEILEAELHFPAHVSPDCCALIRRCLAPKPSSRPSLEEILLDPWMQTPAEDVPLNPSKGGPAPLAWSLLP
The test is described as follows: PIM-2 Assay (as Example A). Conditions: averaged IC50; 4 μM ATP, 1.0 μM PIM2tide, 1.5 nM Pim-2. The procedure, abridged: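 IC50 was derived by 4-parameter logistic fitting of percent-of-control data over a 10-point, 3-fold series (highest 10 μM, 2% DMSO). Reactions held 1.5 nM GST-Pim-2 (full-length, human), 4 μM [γ-33P]ATP and 1.0 μM PIM2tide for 60 min at 22 °C, pH 7.4; 33P-peptide captured on P81 filters.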

Structures are written as SMILES. pIC50: −log10 of the molar value. Counter-ions that a name gives are not always drawn.

PIM-1, sequence (P11309 whole entry, species assumed): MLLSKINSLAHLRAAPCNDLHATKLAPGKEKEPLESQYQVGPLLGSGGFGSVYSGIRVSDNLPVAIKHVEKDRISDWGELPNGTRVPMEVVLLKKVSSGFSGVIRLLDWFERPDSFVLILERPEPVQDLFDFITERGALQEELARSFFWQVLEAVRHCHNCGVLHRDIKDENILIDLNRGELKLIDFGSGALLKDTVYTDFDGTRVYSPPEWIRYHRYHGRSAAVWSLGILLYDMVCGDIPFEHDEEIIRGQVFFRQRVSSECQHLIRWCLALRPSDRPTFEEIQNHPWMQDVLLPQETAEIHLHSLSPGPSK

`Cn1cc(-c2ccc3ccc(-c4nnc5ccc([C@@H](N6CC[C@H](N)C6)C(F)(F)F)cn45)nc3c2F)cn1` [Example 171, (S)-1-((R)-2,2,2-trifluoro-1-(3-(8-fluoro-7-(1-methyl-1H-pyrazol-4-yl)quinolin-2-yl)-[1,2,4]triazolo[4,3-a]pyridin-6-yl)ethyl)pyrrolidin-3-amine tri-hydrochloride]: the values for the pIC50 (against PIM-1; at recombinant rat PIM-3; in test [1]) were 9.54, 9.30 and less than 7.00, respectively.
The matching figures for `N[C@H]1CCN([C@H](c2ccc3nnc(-c4ccc5ccc(C6CC6)c(F)c5n4)n3c2)C(F)(F)F)C1` [Example 172, (S)-1-((R)-1-(3-(7-cyclopropyl-8-fluoroquinolin-2-yl)-[1,2,4]triazolo[4,3-a]pyridin-6-yl)-2,2,2-trifluoroethyl)pyrrolidin-3-amine dihydrochloride]: 8.65, 8.00 and less than 7.00.
Regarding `Cn1cc(-c2cc3nc(-c4nnc5ccc([C@@H](N6CC[C@H](N)C6)C(F)(F)F)cn45)ccc3cc2F)cn1` [Example 173, (S)-1-((R)-2,2,2-trifluoro-1-(3-(6-fluoro-7-(1-methyl-1H-pyrazol-4-yl)quinolin-2-yl)-[1,2,4]triazolo[4,3-a]pyridin-6-yl)ethyl)pyrrolidin-3-amine tri-hydrochloride], the results for the pIC50 (against PIM-1; at recombinant rat PIM-3; in test [1]) were 9.89, 9.40 and less than 7.00, respectively.
The matching figures for `COCCOc1ccc2ccc(-c3nnc4ccc([C@@H](N5CC[C@H](N)C5)C(F)(F)F)cn34)nc2c1Cl` [Example 174, (S)-1-((R)-1-(3-(8-chloro-7-(2-methoxyethoxy)quinolin-2-yl)-[1,2,4]triazolo[4,3-a]pyridin-6-yl)-2,2,2-trifluoroethyl)pyrrolidin-3-amine hydrochloride]: 8.96, 9.10 and less than 7.00.
The matching figures for `COc1ccc2ccc(-c3nnc4ccc([C@@H](N5CC[C@H](N)C5)C(F)(F)F)cn34)nc2c1Cl` [Example 175, (S)-1-((R)-1-(3-(8-chloro-7-methoxyquinolin-2-yl)-[1,2,4]triazolo[4,3-a]pyridin-6-yl)-2,2,2-trifluoroethyl)pyrrolidin-3-amine hydrochloride]: 9.15, 8.85 and less than 7.00.
The matching figures for `N[C@H]1CCN([C@H](c2ccc3nnc(-c4ccc5cc(F)c(C6CC6)cc5n4)n3c2)C(F)(F)F)C1` [Example 176, (S)-1-((R)-1-(3-(7-cyclopropyl-6-fluoroquinolin-2-yl)-[1,2,4]triazolo[4,3-a]pyridin-6-yl)-2,2,2-trifluoroethyl)pyrrolidin-3-amine dihydrochloride]: 9.77, 8.57 and 7.04.
`N[C@H]1CCN([C@H](c2ccc3nnc(-c4ccc5cc(F)cc(C6CC6)c5n4)n3c2)C(F)(F)F)C1` [Example 177, (S)-1-((R)-1-(3-(8-cyclopropyl-6-fluoroquinolin-2-yl)-[1,2,4]triazolo[4,3-a]pyridin-6-yl)-2,2,2-trifluoroethyl)pyrrolidin-3-amine dihydrochloride]: the figures for the pIC50 (against PIM-1; at recombinant rat PIM-3; in test [1]) were 9.51, 8.77 and less than 7.00, respectively.
The matching figures for `COc1c(F)cc2ccc(-c3nnc4ccc([C@@H](N5CC[C@H](N)C5)C(F)(F)F)cn34)nc2c1F` [Example 178, (S)-1-((R)-1-(3-(6,8-difluoro-7-methoxyquinolin-2-yl)-[1,2,4]triazolo[4,3-a]pyridin-6-yl)-2,2,2-trifluoroethyl)pyrrolidin-3-amine dihydrochloride]: 8.74, 7.72 and less than 7.00.
The matching figures for `COCCOc1ccc2ccc(-c3nnc4ccc([C@@H](N5CC[C@H](N)C5)C(F)(F)F)cn34)nc2c1F` [Example 179, (S)-1-((R)-2,2,2-trifluoro-1-(3-(8-fluoro-7-(2-methoxyethoxy)quinolin-2-yl)-[1,2,4]triazolo[4,3-a]pyridin-6-yl)ethyl)pyrrolidin-3-amine dihydrochloride]: 8.61, 8.39 and less than 7.00.
The matching figures for `COC[C@@H](C)Oc1ccc2ccc(-c3nnc4ccc([C@@H](N5CC[C@H](N)C5)C(F)(F)F)cn34)nc2c1F` [Example 180, (S)-1-((R)-2,2,2-trifluoro-1-(3-(8-fluoro-7-((R)-1-methoxypropan-2-yloxy)quinolin-2-yl)-[1,2,4]triazolo[4,3-a]pyridin-6-yl)ethyl)pyrrolidin-3-amine dihydrochloride]: 8.51, 7.89 and less than 7.00.
Regarding `N[C@@H]1CN([C@H](c2ccc3nnc(-c4ccc5cc(F)cc(C6CC6)c5n4)n3c2)C(F)(F)F)C[C@H]1O` [Example 181, (3R,4R)-4-amino-1-((R)-1-(3-(8-cyclopropyl-6-fluoroquinolin-2-yl)-[1,2,4]triazolo[4,3-a]pyridin-6-yl)-2,2,2-trifluoroethyl)pyrrolidin-3-ol dihydrochloride], the pIC50 (commonly −log10 of the IC50, conventionally taken in molar units) against PIM-1 was 9.39; at recombinant rat PIM-3, 8.57; in test [1], 7.02.
The matching figures for `N[C@H]1CCN([C@H](c2ccc3nnc(-c4ccc5cccc(Cl)c5n4)n3c2)C(F)(F)F)C1` [Example 182, (S)-1-((R)-2,2,2-trifluoro-1-(3-(8-chloroquinolin-2-yl)-[1,2,4]triazolo[4,3-a]pyridin-6-yl)ethyl)pyrrolidin-3-amine dihydrochloride]: 9.12, 8.39 and less than 7.00.
In the case of `Cc1cccc2ccc(-c3nnc4ccc([C@@H](N5CC[C@H](N)C5)C(F)(F)F)cn34)nc12` [Example 183, (S)-1-((R)-2,2,2-trifluoro-1-(3-(8-methylquinolin-2-yl)-[1,2,4]triazolo[4,3-a]pyridin-6-yl)ethyl)pyrrolidin-3-amine dihydrochloride], the values for the pIC50 (at PIM-1; on recombinant rat PIM-3; in test [1]) were 9.57, 8.92 and less than 7.00, respectively.
As to `Cc1cc(F)cc2ccc(-c3nnc4ccc([C@@H](N5CC[C@H](N)C5)C(F)(F)F)cn34)nc12` [Example 184, (S)-1-((R)-2,2,2-trifluoro-1-(3-(6-fluoro-8-methylquinolin-2-yl)-[1,2,4]triazolo[4,3-a]pyridin-6-yl)ethyl)pyrrolidin-3-amine dihydrochloride], the pIC50 is 9.39 at PIM-1, 8.82 at recombinant rat PIM-3 and less than 7.00 in test [1].
The matching figures for `COCc1cccc2ccc(-c3nnc4ccc([C@@H](N5CC[C@H](N)C5)C(F)(F)F)cn34)nc12` [Example 185, (S)-1-((R)-2,2,2-trifluoro-1-(3-(8-(methoxymethyl)quinolin-2-yl)-[1,2,4]triazolo[4,3-a]pyridin-6-yl)ethyl)pyrrolidin-3-amine dihydrochloride]: 9.43, 9.00 and less than 7.00.
As for `C[C@H](CO)Oc1cccc2ccc(-c3nnc4ccc([C@@H](N5CC[C@H](N)C5)C(F)(F)F)cn34)nc12` [Example 186, (R)-2-(2-(6-((R)-1-((S)-3-aminopyrrolidin-1-yl)-2,2,2-trifluoroethyl)-[1,2,4]triazolo[4,3-a]pyridin-3-yl)quinolin-8-yloxy)propan-1-ol dihydrochloride], the figures for the pIC50 (against PIM-1; at recombinant rat PIM-3; in test [1]) were 9.80, 9.40 and 7.17, respectively.
In the case of `C[C@H](O)COc1cccc2ccc(-c3nnc4ccc([C@@H](N5CC[C@H](N)C5)C(F)(F)F)cn34)nc12` [Example 187, (S)-1-(2-(6-((R)-1-((S)-3-aminopyrrolidin-1-yl)-2,2,2-trifluoroethyl)-[1,2,4]triazolo[4,3-a]pyridin-3-yl)quinolin-8-yloxy)propan-2-ol dihydrochloride], the pIC50 against PIM-1 was 9.43; at recombinant rat PIM-3 it was 9.05; in test [1], less than 7.00.
Consider `CC(C)Oc1cccc2ccc(-c3nnc4ccc([C@@H](N5CC[C@](N)(CO)C5)C(F)(F)F)cn34)nc12` [Example 188, ((R)-3-amino-1-((R)-2,2,2-trifluoro-1-(3-(8-isopropoxyquinolin-2-yl)-[1,2,4]triazolo[4,3-a]pyridin-6-yl)ethyl)pyrrolidin-3-yl)methanol dihydrochloride], for which the values for the pIC50 (at PIM-1; at recombinant rat PIM-3; in test [1]) were 9.52, 9.00 and 6.95, respectively.
For `CC(C)(C)c1cccc2ccc(-c3nnc4ccc([C@@H](N5CC[C@](N)(CO)C5)C(F)(F)F)cn34)nc12` [Example 189, ((R)-3-amino-1-((R)-1-(3-(8-tert-butylquinolin-2-yl)-[1,2,4]triazolo[4,3-a]pyridin-6-yl)-2,2,2-trifluoroethyl)pyrrolidin-3-yl)methanol dihydrochloride], the pIC50 was 9.24 on PIM-1, 8.82 at recombinant rat PIM-3 and 7.07 in test [1].

The record behind these values is patent US8889704B2 (Array BioPharma Inc., priority 2011, dated 2014).
